Measurements: patent US10793526B2, “Hydantoin derivative compounds, methods of use and methods of treatment” (University of South Florida, priority 2016, dated 2020)

Legend:
[1] = tested on: methicillin-resistant S. aureus (MRSA, ATCC 33591); assay: Minimum inhibitory concentration (MIC) assay, MRSA; format: cell-based, Staphylococcus aureus; settings: Gram positive, ATCC 33591, 16 h incubation; for MIC: Staphylococcus aureus, read-out: MIC (μg/mL) MRSA
Protocol: (§1) Minimum inhibitory concentrations (MICs) assay.^2
(§2) All compounds were tested against six different bacteria strains: methicillin-resistant S. aureus (MRSA, ATCC 33591), E. coli (ATCC 25922), methicillin-resistant S. epidermidis (MRSE, RP62A), K. pneumoniae (ATCC 13383), vancomycin-resistant Enterococcus faecalis (VREF, ATCC 700802), P. aeruginosa (ATCC 27853). One colony of each bacteria was inoculated in 4 mL TSB buffer at 37° C. overnight, which was then diluted 100 times, and the bacteria were allowed to grow to the mid-logarithmic phase. 50 μL hydantoin compounds in 2-fold serial dilution of TSB were added in the 96-well plate, then 50 μL diluted bacterial in TSB medium (1×10^6 CFU/mL) was added to each well. After 16 h of incubation at 37° C., the absorption at 600 nm wavelength on a Biotek Synergy HT microtiter plate reader was recorded. Minimum inhibitory concentrations were determined as the lowest concentrations that inhibited bacteria growth completely.

[2] = tested on: methicillin-resistant S. epidermidis (MRSE, RP62A); assay: Minimum inhibitory concentration (MIC) assay, MRSE; format: cell-based, Staphylococcus epidermidis; settings: Gram positive, 16 h incubation; for MIC: Staphylococcus epidermidis, MRSE, read-out: MIC (μg/mL) MRSE
Protocol: as §1, §2

[3] = tested on: vancomycin-resistant Enterococcus faecalis (VREF, ATCC 700802); assay: Minimum inhibitory concentration (MIC) assay, VREF; format: cell-based; settings: 16 h incubation; for MIC: Enterococcus faecalis, ATCC700802, Gram positive, read-out: MIC (μg/mL) VREF; for MIC (μg/mL) VREF: Gram positive
Protocol: as §1, §2

E. coli (ATCC 25922) = assay: Minimum inhibitory concentration (MIC) assay, E. coli; format: cell-based, Escherichia coli; settings: 16 h incubation; for MIC: Escherichia coli, ATCC25922, Gram negative, read-out: MIC (μg/mL) E. coli; for MIC (μg/mL) E. coli: Gram negative
Protocol: as §1, §2

[4] = tested on: P. aeruginosa (ATCC 27853); assay: Minimum inhibitory concentration (MIC) assay, P. aeruginosa; format: cell-based, Pseudomonas aeruginosa; settings: Gram negative, ATCC 27853, 16 h incubation; for MIC: Pseudomonas aeruginosa, ATCC27853, read-out: MIC (μg/mL) P.A.
Protocol: as §1, §2

[5] = tested on: K. pneumoniae (ATCC 13383); assay: Minimum inhibitory concentration (MIC) assay, K. pneumoniae; format: cell-based, Klebsiella pneumoniae; settings: 16 h incubation; for MIC: Klebsiella pneumoniae, ATCC13383, Gram negative, read-out: MIC (μg/mL) K.P.; for MIC (μg/mL) K.P.: Gram negative
Protocol: as §1, §2

[6] = tested on: panel of Gram-positive and Gram-negative bacteria; assay: Antimicrobial activity against the whole panel of bacteria; format: cell-based; settings: for antibacterial activity of compounds with HPLC RT values less than 26 min: statement relating activity to retention time; for antimicrobial activity across the tested bacterial strains: all tested strains
Protocol: as §1, §2

SMILES	MIC [1] [µg/mL]	MIC [2] [µg/mL]	MIC [3] [µg/mL]	MIC (E. coli (ATCC 25922)) [µg/mL]	MIC [4] [µg/mL]	MIC [5] [µg/mL]	antibacterial activity of compounds with HPLC RT values less than 26 min [6]	antimicrobial activity across the tested bacterial strains [6]	MIC ([6]; range over most strains of the panel, read-out: MICs against most of bacteria) [µg/mL]	MIC (μg/mL) MRSA [1] [µg/mL]	MIC (μg/mL) MRSE [2] [µg/mL]	MIC (μg/mL) VREF [3] [µg/mL]	MIC (μg/mL) E. coli (E. coli (ATCC 25922)) [µg/mL]	MIC (μg/mL) P.A. [4] [µg/mL]	MIC (μg/mL) K.P. [5] [µg/mL]
CCCCCCCCCCCCCC(=O)N[C@@H](CCCCN)CN1CC(=O)N(c2ccc(OC)cc2)C1=O [Compound 19, (S)—N-(6-amino-1-(3-(4-methoxyphenyl)-2,4-dioxoimidazolidin-1-yl)hexan-2-yl)tetradecanamide]	6.25	6.25	6.25	6.25	> 50	25	–	–	–	–	–	–	–	–	–
CCCCCCCCCCCC(=O)N[C@@H](CCCCN)CN1CC(=O)N(CC)C1=O [Compound 2, (S)—N-(6-amino-1-(3-ethyl-2,4-dioxoimidazolidin-1-yl)hexan-2-yl)dodecanamide]	> 50	> 50	> 50	12.5	> 50	> 50	no apparent antibacterial activity	–	–	–	–	–	–	–	–
CCCCCCCCCC(=O)N[C@@H](CCCCN)CN1CC(=O)N(CC)C1=O [Compound 1, (S)—N-(6-amino-1-(3-ethyl-2,4-dioxoimidazolidin-1-yl)hexan-2-yl)decanamide]	> 50	> 50	> 50	> 50	> 50	> 50	no apparent antibacterial activity	doesn't exhibit any activity	–	–	–	–	–	–	–
CCCCCCCCCC(=O)N[C@@H](CCCCN)CN1CC(=O)N(C2CCCCC2)C1=O [Compound 9, (S)—N-(6-amino-1-(3-cyclohexyl-2,4-dioxoimidazolidin-1-yl)hexan-2-yl)decanamide]	25	> 50	> 50	12.5	> 50	25	no apparent antibacterial activity	starts to show activity toward a few bacterial strains	–	–	–	–	–	–	–
CCCCCCCCCCCCCC(=O)N[C@@H](CCCCN)CN1CC(=O)N(c2cccc(Cl)c2)C1=O [Compound 23, (S)—N-(6-amino-1-(3-(3-chlorophenyl)-2,4-dioxoimidazolidin-1-yl)hexan-2-yl)tetradecanamide]	12.5	12.5	12.5	> 50	> 50	> 50	–	–	–	–	–	–	–	–	–
CCCCCCCCCC(=O)N[C@@H](CCCCN)CN1CC(=O)N(CCCC)C1=O [Compound 5, (S)—N-(6-amino-1-(3-butyl-2,4-dioxoimidazolidin-1-yl)hexan-2-yl)decanamide]	> 50	> 50	> 50	> 50	> 50	> 50	no apparent antibacterial activity	doesn't have any antimicrobial activity	–	–	–	–	–	–	–
O=C1CN(/N=C/c2ccc([N+](=O)[O-])o2)C(=O)N1 [Compound 26, nitrofurantoin, reference compound]	12.5	6.25	12.5	6.25	> 50	25	–	–	6.25 to 25	–	–	–	–	–	–
CCCCCCCCCCCCCCCC(=O)N[C@@H](CCCCN)CN1CC(=O)N(c2ccc(OC)cc2)C1=O [Compound 20, (S)—N-(6-amino-1-(3-(4-methoxyphenyl)-2,4-dioxoimidazolidin-1-yl)hexan-2-yl)palmitamide]	3.12	6.25	6.25	> 50	> 50	> 50	–	–	–	–	–	–	–	–	–
CCCCCCCCCC(=O)N[C@@H](CCCCN)CN1CC(=O)N(c2ccc(OC)cc2)C1=O [Compound 17, (S)—N-(6-amino-1-(3-(4-methoxyphenyl)-2,4-dioxoimidazolidin-1-yl)hexan-2-yl)decanamide]	> 50	> 50	> 50	> 50	> 50	> 50	no apparent antibacterial activity	–	–	–	–	–	–	–	–
CCCCCCCCCCCCCCCC(=O)N[C@@H](CCCCN)CN1CC(=O)N(C2CCCCC2)C1=O [Compound 12, (S)—N-(6-amino-1-(3-cyclohexyl-2,4-dioxoimidazolidin-1-yl)hexan-2-yl)palmitamide]	3.12	25	25	> 50	> 50	> 50	–	–	–	–	–	–	–	–	–
CCCCCCCCCCCC(=O)N[C@@H](CCCCN)CN1CC(=O)N(C23CC4CC(CC(C4)C2)C3)C1=O [Compound 14, N—((S)-1-(3-((3R,5R,7R)-adamantan-1-yl)-2,4-dioxoimidazolidin-1-yl)-6-aminohexan-2-yl) dodecanamide]	–	–	–	–	–	–	–	–	–	6.25	6.25	6.25	12.5	>50	>50
CCCCCCCCCCCCCCCC(=O)N[C@@H](CCCCN)CN1CC(=O)N(C23CC4CC(CC(C4)C2)C3)C1=O [Compound 16, N—((S)-1-(3-((3R,5R,7R)-adamantan-1-yl)-2,4-dioxoimidazolidin-1-yl)-6-aminohexan-2-yl) palmitamide]	–	–	–	–	–	–	–	–	–	>50	>50	>50	>50	>50	>50
CCCCCCCCCCCC(=O)N[C@@H](Cc1ccccc1)CN1CC(=O)N(c2cccc(Cl)c2)C1=O [Compound 25, (S)—N-(1-(3-(3-chlorophenyl)-2,4-dioxoimidazolidin-1-yl)-3-phenylpropan-2-yl)dodecanamide]	> 50	> 50	> 50	> 50	> 50	> 50	no apparent antibacterial activity	fails to show any antimicrobial activity	–	–	–	–	–	–	–
CCCCCCCCCCCCCCCC(=O)N[C@@H](CCCCN)CN1CC(=O)N(CCCC)C1=O [Compound 8, (S)—N-(6-amino-1-(3-butyl-2,4-dioxoimidazolidin-1-yl)hexan-2-yl)palmitamide]	6.25	6.25	6.25	> 50	> 50	> 50	–	–	–	–	–	–	–	–	–
CCCCCCCCCCCCCC(=O)N[C@@H](CCCCN)CN1CC(=O)N(C23CC4CC(CC(C4)C2)C3)C1=O [Compound 15, N—((S)-1-(3-((3R,5R,7R)-adamantan-1-yl)-2,4-dioxoimidazolidin-1-yl)-6-aminohexan-2-yl) tetradecanamide]	–	–	–	–	–	–	–	–	–	3.12	3.15	6.25	>50	>50	>50
CCCCCCCCCCCCCC(=O)N[C@@H](CCCCN)CN1CC(=O)N(CCCC)C1=O [Compound 7, (S)—N-(6-amino-1-(3-butyl-2,4-dioxoimidazolidin-1-yl)hexan-2-yl)tetradecanamide]	6.25	6.25	6.25	6.25	> 50	12.5	–	–	–	–	–	–	–	–	–
CCCCCCCCCCCCCC(=O)N[C@@H](CCCCN)CN1CC(=O)N(C2CCCCC2)C1=O [Compound 11, (S)—N-(6-amino-1-(3-cyclohexyl-2,4-dioxoimidazolidin-1-yl)hexan-2-yl)tetradecanamide]	3.12	6.25	6.25	12.5	> 50	6.25	–	–	–	–	–	–	–	–	–
CCCCCCCCCCCCCCCC(=O)N[C@@H](CCCCN)CN1CC(=O)N(c2cccc(Cl)c2)C1=O [Compound 24, (S)—N-(6-amino-1-(3-(3-chlorophenyl)-2,4-dioxoimidazolidin-1-yl)hexan-2-yl)palmitamide]	12.5	12.5	12.5	> 50	> 50	> 50	–	–	–	–	–	–	–	–	–
